Laboratory results taken from patent US9340590B2 (priority 2011, dated 2016).
Read-outs that look alike come from different tables or passages of the source. Positions of bridges follow the written chain, without caps; N, C: chain ends. Residues, ends and D or L forms follow the SMILES beside them.

Target: hNav1.7 (Homo sapiens, UniProt Q15858)
Assay: cell-based
Assay type: cell-based
Details: read-out: IWQ Use Nav1.7

Chain of hNav1.7 (Q15858 whole entry, looked up): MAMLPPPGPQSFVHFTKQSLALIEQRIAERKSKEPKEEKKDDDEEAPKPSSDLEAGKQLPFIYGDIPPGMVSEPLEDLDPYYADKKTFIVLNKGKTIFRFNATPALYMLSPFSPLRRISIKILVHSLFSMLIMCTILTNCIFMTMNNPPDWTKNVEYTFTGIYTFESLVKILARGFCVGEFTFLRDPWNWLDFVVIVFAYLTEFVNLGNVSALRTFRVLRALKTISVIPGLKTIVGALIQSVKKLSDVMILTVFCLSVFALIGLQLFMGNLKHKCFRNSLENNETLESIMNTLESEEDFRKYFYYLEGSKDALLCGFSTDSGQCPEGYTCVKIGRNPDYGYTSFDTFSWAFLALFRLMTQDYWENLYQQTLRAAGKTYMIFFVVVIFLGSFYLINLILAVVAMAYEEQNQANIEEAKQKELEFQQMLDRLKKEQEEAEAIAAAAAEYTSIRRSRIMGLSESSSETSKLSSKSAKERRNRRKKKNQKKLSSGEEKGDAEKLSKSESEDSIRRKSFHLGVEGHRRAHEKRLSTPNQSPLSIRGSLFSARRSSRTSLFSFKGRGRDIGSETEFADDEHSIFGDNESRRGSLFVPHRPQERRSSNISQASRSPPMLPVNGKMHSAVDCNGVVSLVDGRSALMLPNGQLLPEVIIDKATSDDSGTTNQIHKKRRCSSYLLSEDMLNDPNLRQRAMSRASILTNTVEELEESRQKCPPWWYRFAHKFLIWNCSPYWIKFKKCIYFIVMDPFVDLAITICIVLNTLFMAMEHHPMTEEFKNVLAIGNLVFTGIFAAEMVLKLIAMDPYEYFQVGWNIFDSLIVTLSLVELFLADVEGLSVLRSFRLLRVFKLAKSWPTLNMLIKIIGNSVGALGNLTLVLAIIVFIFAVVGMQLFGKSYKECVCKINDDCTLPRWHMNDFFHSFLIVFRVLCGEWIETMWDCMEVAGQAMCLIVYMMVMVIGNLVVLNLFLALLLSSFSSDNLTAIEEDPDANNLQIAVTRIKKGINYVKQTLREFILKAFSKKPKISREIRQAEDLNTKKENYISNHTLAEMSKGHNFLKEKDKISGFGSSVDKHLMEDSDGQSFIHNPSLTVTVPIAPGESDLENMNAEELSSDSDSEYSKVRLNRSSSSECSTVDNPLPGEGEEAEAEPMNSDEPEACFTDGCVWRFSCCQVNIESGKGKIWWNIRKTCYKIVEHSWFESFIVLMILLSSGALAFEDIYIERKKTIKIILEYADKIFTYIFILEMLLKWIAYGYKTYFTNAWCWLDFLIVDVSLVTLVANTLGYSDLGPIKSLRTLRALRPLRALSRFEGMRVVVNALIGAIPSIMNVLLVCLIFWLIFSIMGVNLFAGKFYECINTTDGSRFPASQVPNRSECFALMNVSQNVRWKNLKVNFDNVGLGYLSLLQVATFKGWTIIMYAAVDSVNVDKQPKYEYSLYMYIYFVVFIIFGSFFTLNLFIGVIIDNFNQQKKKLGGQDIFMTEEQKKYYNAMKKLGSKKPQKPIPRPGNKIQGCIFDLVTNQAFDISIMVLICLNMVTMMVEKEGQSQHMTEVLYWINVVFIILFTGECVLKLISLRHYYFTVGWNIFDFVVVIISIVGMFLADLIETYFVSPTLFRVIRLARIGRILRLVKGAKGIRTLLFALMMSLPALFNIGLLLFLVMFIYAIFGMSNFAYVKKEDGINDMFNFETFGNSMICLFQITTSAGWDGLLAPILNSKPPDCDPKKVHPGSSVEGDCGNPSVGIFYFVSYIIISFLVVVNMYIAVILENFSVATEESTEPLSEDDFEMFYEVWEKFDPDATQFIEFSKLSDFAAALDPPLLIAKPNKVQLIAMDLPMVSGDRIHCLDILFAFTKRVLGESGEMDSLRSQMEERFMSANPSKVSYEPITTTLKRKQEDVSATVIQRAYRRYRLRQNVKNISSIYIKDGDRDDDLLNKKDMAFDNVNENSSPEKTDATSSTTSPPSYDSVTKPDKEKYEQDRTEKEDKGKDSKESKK

SMILES | IC50 [µM] | also measured
CC[C@H](C)[C@@H]1NC(=O)[C@@H]2CSSC[C@@H]3NC(=O)[C@H](C(C)C)NC(=O)[C@H](CC(C)C)NC(=O)[C@H](CC(N)=O)NC(=O)[C@@H]4CCCN4C(=O)[C@H](CCCNC(=N)N)NC(=O)[C@H](CSSC[C@H](NC(=O)[C@@H](N)CC(=O)O)C(=O)N[C@@H](CC(C)C)C(=O)NCC(=O)N[C@@H](CCCNC(=N)N)C(=O)N[C@@H](CCSC)C(=O)N[C@@H](CCCNC(=N)N)C(=O)N[C@@H](CCCCN)C(=O)N2)NC(=O)[C@H](CSSC[C@@H](C(=O)N[C@@H](CCCCN)C(=O)N[C@@H](Cc2ccc(O)cc2)C(=O)N[C@H](C(=O)N[C@@H](Cc2ccccc2)C(N)=O)C(C)C)NC(=O)[C@H](Cc2c[nH]c4ccccc24)NC(=O)[C@H](CCCCN)NC(=O)[C@H](Cc2c[nH]cn2)NC(=O)[C@H]([C@@H](C)O)NC(=O)[C@H](CCCNC(=N)N)NC(=O)[C@H](CO)NC3=O)NC(=O)[C@H](CCCCN)NC(=O)[C@H](CC(=O)O)NC(=O)[C@H](CC(N)=O)NC(=O)[C@H](CC(=O)O)NC(=O)[C@@H]2CCCN2C1=O [SEQ ID NO: 156] (H-DCLGRMRKCIPDNDKCCRPNLVCSRTHKWCKYVF-NH2; disulfide 2-17, 9-23, 16-30) | – | IC50 (IonWorks Quattro, clamped to −110 mV, depolarized to −10 mV, 5 min after compound, n=2): 3.63 µM
CC[C@H](C)[C@@H]1NC(=O)[C@@H]2CSSC[C@@H]3NC(=O)[C@H](C(C)C)NC(=O)[C@H](CC(C)C)NC(=O)[C@H](CC(N)=O)NC(=O)[C@@H]4CCCN4C(=O)[C@H](CCCNC(=N)N)NC(=O)[C@H](CSSC[C@H](NC(=O)[C@@H](N)CC(=O)O)C(=O)N[C@@H](CC(C)C)C(=O)N[C@@H](Cc4c[nH]c5ccccc45)C(=O)N[C@@H](Cc4ccccc4)C(=O)N[C@@H](CCSC)C(=O)N[C@@H](CCCNC(=N)N)C(=O)N[C@@H](CCCCN)C(=O)N2)NC(=O)[C@H](CSSC[C@@H](C(=O)N[C@@H](CCCCN)C(=O)N[C@@H](Cc2ccc(O)cc2)C(=O)N[C@H](C(=O)N[C@@H](Cc2ccccc2)C(N)=O)C(C)C)NC(=O)[C@H](Cc2c[nH]c4ccccc24)NC(=O)[C@H](CCCCN)NC(=O)[C@H](Cc2c[nH]cn2)NC(=O)[C@H]([C@@H](C)O)NC(=O)[C@H](CCCNC(=N)N)NC(=O)[C@H](CO)NC3=O)NC(=O)[C@H](CCCCN)NC(=O)[C@H](CC(=O)O)NC(=O)[C@H](CC(N)=O)NC(=O)[C@H](CC(=O)O)NC(=O)[C@@H]2CCCN2C1=O [SEQ ID NO: 169] (H-DCLWFMRKCIPDNDKCCRPNLVCSRTHKWCKYVF-NH2; disulfide 2-17, 9-23, 16-30) | 0.05 | –
CC[C@H](C)[C@@H]1NC(=O)[C@@H]2CSSC[C@@H]3NC(=O)[C@H](C(C)C)NC(=O)[C@H](CC(C)C)NC(=O)[C@H](CC(N)=O)NC(=O)[C@@H]4CCCN4C(=O)[C@H](CCCNC(=N)N)NC(=O)[C@H](CSSC[C@H](NC(=O)[C@@H](N)CC(=O)O)C(=O)N[C@@H](CC(C)C)C(=O)NCC(=O)N[C@@H](Cc4ccccc4)C(=O)N[C@@H](CCSC)C(=O)N[C@@H](C)C(=O)N[C@@H](CCCCN)C(=O)N2)NC(=O)[C@H](CSSC[C@@H](C(=O)N[C@@H](CCCCN)C(=O)N[C@@H](Cc2ccc(O)cc2)C(=O)N[C@H](C(=O)N[C@@H](Cc2ccccc2)C(N)=O)C(C)C)NC(=O)[C@H](Cc2c[nH]c4ccccc24)NC(=O)[C@H](CCCCN)NC(=O)[C@H](Cc2c[nH]cn2)NC(=O)[C@H]([C@@H](C)O)NC(=O)[C@H](CCCNC(=N)N)NC(=O)[C@H](CO)NC3=O)NC(=O)[C@H](CCCCN)NC(=O)[C@H](CC(=O)O)NC(=O)[C@H](CC(N)=O)NC(=O)[C@H](CC(=O)O)NC(=O)[C@@H]2CCCN2C1=O [[Ala7]GpTx-1(1-34)] (H-DCLGFMAKCIPDNDKCCRPNLVCSRTHKWCKYVF-NH2; disulfide 2-17, 9-23, 16-30) | – | IC50 (IonWorks Quattro, use-dependent block, hNav1.7): 0.94 µM
CC[C@H](C)[C@@H]1NC(=O)[C@@H]2CSSC[C@@H]3NC(=O)[C@H](C(C)C)NC(=O)[C@H](CC(C)C)NC(=O)[C@H](CC(N)=O)NC(=O)[C@@H]4CCCN4C(=O)[C@H](CCCNC(=N)N)NC(=O)[C@H](CSSC[C@H](NC(=O)[C@@H](N)CC(=O)O)C(=O)N[C@@H](CC(C)C)C(=O)NCC(=O)N[C@@H](Cc4ccccc4)C(=O)N[C@@H](CCSC)C(=O)N[C@@H](CCCNC(=N)N)C(=O)N[C@@H](CCC(=O)O)C(=O)N2)NC(=O)[C@H](CSSC[C@@H](C(=O)N[C@@H](CCCCN)C(=O)N[C@@H](Cc2ccc(O)cc2)C(=O)N[C@H](C(=O)N[C@@H](Cc2ccccc2)C(N)=O)C(C)C)NC(=O)[C@H](Cc2c[nH]c4ccccc24)NC(=O)[C@H](CCCCN)NC(=O)[C@H](Cc2c[nH]cn2)NC(=O)[C@H]([C@@H](C)O)NC(=O)[C@H](CCCNC(=N)N)NC(=O)[C@H](CO)NC3=O)NC(=O)[C@H](CCCCN)NC(=O)[C@H](CC(=O)O)NC(=O)[C@H](CC(N)=O)NC(=O)[C@H](CC(=O)O)NC(=O)[C@@H]2CCCN2C1=O [[Glu8]GpTx-1(1-34)] (H-DCLGFMRECIPDNDKCCRPNLVCSRTHKWCKYVF-NH2; disulfide 2-17, 9-23, 16-30) | 1.7 | –
CC[C@H](C)[C@@H]1NC(=O)[C@@H]2CSSC[C@@H]3NC(=O)[C@H](C(C)C)NC(=O)[C@H](CC(C)C)NC(=O)[C@H](CC(N)=O)NC(=O)[C@@H]4CCCN4C(=O)[C@H](CCCNC(=N)N)NC(=O)[C@H](CSSC[C@H](NC(=O)[C@@H](N)CC(=O)O)C(=O)N[C@@H](CC(C)C)C(=O)NCC(=O)N[C@@H](Cc4ccccc4)C(=O)N[C@@H](CCSC)C(=O)N[C@@H](CCCNC(=N)N)C(=O)N[C@@H](CCCCN)C(=O)N2)NC(=O)[C@H](CSSC[C@@H](C(=O)N[C@@H](CCCCN)C(=O)N[C@@H](Cc2ccc(O)cc2)C(=O)N[C@H](C(=O)N[C@@H](Cc2ccccc2)C(N)=O)C(C)C)NC(=O)[C@H](Cc2c[nH]c4ccccc24)NC(=O)[C@H](CCCCN)NC(=O)[C@H](Cc2c[nH]cn2)NC(=O)[C@H]([C@@H](C)O)NC(=O)[C@H](CCCNC(=N)N)NC(=O)[C@H](CO)NC3=O)NC(=O)[C@H](CCCCN)NC(=O)[C@H](CC(=O)O)NC(=O)[C@H](CC(N)=O)NC(=O)[C@H](C)NC(=O)[C@@H]2CCCN2C1=O [compound 4] (H-DCLGFMRKCIPANDKCCRPNLVCSRTHKWCKYVF-NH2; disulfide 2-17, 9-23, 16-30) | – | IC50 (IonWorks Quattro, Use): 0.12 µM
CC[C@H](C)[C@@H]1NC(=O)[C@@H]2CSSC[C@@H]3NC(=O)[C@H](C(C)C)NC(=O)[C@H](CC(C)C)NC(=O)[C@H](C)NC(=O)[C@@H]4CCCN4C(=O)[C@H](CCCNC(=N)N)NC(=O)[C@H](CSSC[C@H](NC(=O)[C@@H](N)CC(=O)O)C(=O)N[C@@H](CC(C)C)C(=O)NCC(=O)N[C@@H](Cc4ccccc4)C(=O)N[C@@H](CCSC)C(=O)N[C@@H](CCCNC(=N)N)C(=O)N[C@@H](CCCCN)C(=O)N2)NC(=O)[C@H](CSSC[C@@H](C(=O)N[C@@H](CCCCN)C(=O)N[C@@H](Cc2ccc(O)cc2)C(=O)N[C@H](C(=O)N[C@@H](Cc2ccccc2)C(N)=O)C(C)C)NC(=O)[C@H](Cc2c[nH]c4ccccc24)NC(=O)[C@H](CCCCN)NC(=O)[C@H](Cc2c[nH]cn2)NC(=O)[C@H]([C@@H](C)O)NC(=O)[C@H](CCCNC(=N)N)NC(=O)[C@H](CO)NC3=O)NC(=O)[C@H](CCCCN)NC(=O)[C@H](CC(=O)O)NC(=O)[C@H](CC(N)=O)NC(=O)[C@H](CC(=O)O)NC(=O)[C@@H]2CCCN2C1=O [compound 7] (H-DCLGFMRKCIPDNDKCCRPALVCSRTHKWCKYVF-NH2; disulfide 2-17, 9-23, 16-30) | 0.69 | –
CC[C@H](C)[C@@H]1NC(=O)[C@@H]2CSSC[C@@H]3NC(=O)[C@H](C)NC(=O)[C@H](CC(C)C)NC(=O)[C@H](CC(N)=O)NC(=O)[C@@H]4CCCN4C(=O)[C@H](CCCNC(=N)N)NC(=O)[C@H](CSSC[C@H](NC(=O)[C@@H](N)CC(=O)O)C(=O)N[C@@H](CC(C)C)C(=O)NCC(=O)N[C@@H](Cc4ccccc4)C(=O)N[C@@H](CCSC)C(=O)N[C@@H](CCCNC(=N)N)C(=O)N[C@@H](CCCCN)C(=O)N2)NC(=O)[C@H](CSSC[C@@H](C(=O)N[C@@H](CCCCN)C(=O)N[C@@H](Cc2ccc(O)cc2)C(=O)N[C@H](C(=O)N[C@@H](Cc2ccccc2)C(N)=O)C(C)C)NC(=O)[C@H](Cc2c[nH]c4ccccc24)NC(=O)[C@H](CCCCN)NC(=O)[C@H](Cc2c[nH]cn2)NC(=O)[C@H]([C@@H](C)O)NC(=O)[C@H](CCCNC(=N)N)NC(=O)[C@H](CO)NC3=O)NC(=O)[C@H](CCCCN)NC(=O)[C@H](CC(=O)O)NC(=O)[C@H](CC(N)=O)NC(=O)[C@H](CC(=O)O)NC(=O)[C@@H]2CCCN2C1=O [compound 8] (H-DCLGFMRKCIPDNDKCCRPNLACSRTHKWCKYVF-NH2; disulfide 2-17, 9-23, 16-30) | – | IC50 (IonWorks Quattro, Use): 0.38 µM
CC[C@H](C)[C@@H]1NC(=O)[C@@H]2CSSC[C@@H]3NC(=O)[C@H](C(C)C)NC(=O)[C@H](CC(C)C)NC(=O)[C@H](CC(N)=O)NC(=O)[C@@H]4CCCN4C(=O)[C@H](CCCNC(=N)N)NC(=O)[C@H](CSSC[C@H](NC(=O)[C@@H](N)CC(=O)O)C(=O)N[C@@H](CC(C)C)C(=O)NCC(=O)N[C@@H](Cc4ccccc4)C(=O)N[C@@H](CCSC)C(=O)N[C@@H](CCCNC(=N)N)C(=O)N[C@@H](CCCCN)C(=O)N2)NC(=O)[C@H](CSSC[C@@H](C(=O)N[C@@H](CCCCN)C(=O)N[C@@H](C)C(=O)N[C@H](C(=O)N[C@@H](Cc2ccccc2)C(N)=O)C(C)C)NC(=O)[C@H](Cc2c[nH]c4ccccc24)NC(=O)[C@H](CCCCN)NC(=O)[C@H](Cc2c[nH]cn2)NC(=O)[C@H]([C@@H](C)O)NC(=O)[C@H](CCCNC(=N)N)NC(=O)[C@H](CO)NC3=O)NC(=O)[C@H](CCCCN)NC(=O)[C@H](CC(=O)O)NC(=O)[C@H](CC(N)=O)NC(=O)[C@H](CC(=O)O)NC(=O)[C@@H]2CCCN2C1=O [compound 14] (H-DCLGFMRKCIPDNDKCCRPNLVCSRTHKWCKAVF-NH2; disulfide 2-17, 9-23, 16-30) | 0.8 | –
